From ChEMBL document CHEMBL3045510, “Phyllostoxin and phyllostin, bioactive metabolites produced by Phyllosticta cirsii, a potential mycoherbicide for Cirsium arvense biocontrol” (J Agric Food Chem, 2008) come the findings set out here.

One data set concerns Geotrichum candidum. Kind of data set: Antimicrobial activity against Galactomyces geotrichum up to 100 ug/disk. The data set is classed as functional, organism-based.
The next data set relates to Lactobacillus sp. Kind of data set: Antimicrobial activity against Lactobacillus sp. up to 100 ug/disk. The data set is classed as functional, organism-based.
The subject of the next data set is Artemia salina. Kind of data set: Toxicity against Artemia salina (brine shrimp) up to 1 mM. The data set is classed as organism-based. The following applies: in vivo.
A further data set concerns Cirsium arvense. Kind of data set: Herbicidal activity against Cirsium arvense (Canada thistle) assessed induction of necrosis on leaves as 1 mM. The data set is classed as functional, organism-based.
The test system of another data set is Escherichia coli. Put plainly: Antimicrobial activity against Escherichia coli up to 100 ug/disk. The data set is classed as functional, organism-based.

The structures appear in SMILES notation. Calls of active or inactive are those of the source. The calls are words filed in the database; no cut-off is given here.

As for `COC(=O)C1=C[C@@H](O)[C@@H]2OC(=O)[C@@H](C)O[C@H]2C1` [PHYLLOSTIN], the outcome with Geotrichum candidum, in the data set with Lactobacillus sp., in the data set on Cirsium arvense and in the data set on Escherichia coli was inactive. Moreover, the Activity entry with Artemia salina is listed as “Non-toxic”.

For `CCC(=O)C1(C)C(=O)c2c1ccc(C)c2OC(C)=O` (stereo not given) [PHYLLOSTOXIN], the outcome in the data set on Geotrichum candidum, with Lactobacillus sp. and with Escherichia coli was inactive. Moreover, in the data set on Artemia salina, the Activity result was “Non-toxic”. Further, the result in the data set on Cirsium arvense was Active.
